Laboratory results taken from publication PMC6213309, “Antibacterial Activity and Mechanism of Action of Bovine Lactoferricin Derivatives with Symmetrical Amino Acid Sequences” (International Journal of Molecular Sciences, 2018).
Ends that are not written are not given here.

Key:
[1] = test system: S. epidermidis ATCC 12228; format: cell-based; conditions: ATCC 12228, 18 h
Protocol: (§2) The antimicrobial activity of the peptides were defined as the minimum inhibitory concentrations (MIC) according to the Clinical and Laboratory Standards Institute broth microdilution method as described previously [47]. Briefly, 50 μL two-fold serial dilutions of peptides (with final concentrations ranging from 0 μM to 256 μM) and 50 μL bacterial fluids diluted with MHB were added to 96-well microtiter plates. The plates were then incubated at 37 °C for 18 h.

[2] = test system: Salmonella typhimurium ATCC 14028; format: cell-based; conditions: ATCC 14028, 18 h
Protocol: as §2

S. aureus ATCC 29213 = format: cell-based; conditions: S. aureus ATCC 29213; MHB, 37 °C, 18 h; peptides 0-256 μM; triplicate samples
[3] = test system: Salmonella enterica subsp. CMCC 50071; conditions: MHB, 37 °C, 18 h, peptides 0-256 μM, triplicate samples
Protocol: (§1) The antimicrobial activity of the peptides were defined as the minimum inhibitory concentrations (MIC) according to the Clinical and Laboratory Standards Institute broth microdilution method as described previously. Briefly, 50 μL two-fold serial dilutions of peptides (with final concentrations ranging from 0 μM to 256 μM) and 50 μL bacterial fluids diluted with MHB were added to 96-well microtiter plates. The plates were then incubated at 37 °C for 18 h.

[4] = test system: Salmonella typhimurium C 7731; format: cell-based; conditions: murium C 7731, 18 h
Protocol: as §2

[5] = test system: Salmonella pullorum C 7913; format: cell-based; conditions: 18 h
E. coli ATCC 25922 = format: cell-based; conditions: ATCC25922, 18 h
Protocol: as §2

[6] = test system: all microbial strains in this table; assay: Geometric mean of MICs and therapeutic index; format: cell-based; conditions: nine strains of Table 2
E. coli ATCC25922 [7] = test system: E. coli ATCC25922
Protocol: as §1
We assessed the salt stability, thermal stability, and enzymatic stability of the AMPs. Briefly, E. coli ATCC25922 was selected as the test bacterium. The control group was untreated peptides. Different concentrations of salts (150 mM NaCl, 4.5 mM KCl, 6 μM NH4Cl, 1 mM MgCl2, […], 8 mM […], 2.5 mM CaCl2, and 4 mM FeCl3) were added to the incubation buffer to examine the effect of each salt on the antimicrobial activities of the peptides. AMPs were treated for 1 h at 100 °C to test the thermal stability. AMPs were also treated with trypsin, pepsin, papain, and protease K at a concentration of 1 mg/mL for 1 h at 37 °C to test enzyme stability.

E. coli ATCC25922 [8] = assay: Flow cytometry, PI staining of membrane damage; format: cell-based; conditions: 30 min, 37 °C
Protocol: Flow cytometry can quantify the amount of cells with membrane damage as reported previously. Briefly, E. coli ATCC 25922 grown to the logarithmic phase were centrifuged and re-suspended to an OD600 nm of 0.2 in PBS (pH 7.4). The suspensions were mixed with each peptide at 1/2× MIC or 1× MIC and incubated for 30 min at 37 °C with constant shaking (140 rpm). The cells were then harvested by centrifugation, washed three times with PBS, and incubated with Propidium Iodide (PI) at a final concentration of […] for 30 min at 4 °C. Finally, the unbound dye was removed by washing with an excess amount of PBS. The data were recorded using fluorescence-activated cell sorting (Becton Dickinson, Franklin Lakes NJ, USA).

S. aureus ATCC 25923 = format: cell-based; conditions: ATCC 25923, 18 h
E. coli UB 1005 = format: cell-based; conditions: UB 1005, 18 h
Protocol: as §2

## FWRRWQWRRWF-NH2 [FW-WF]
[1]
  MIC: 8 µM
[2]
  MIC: 128 µM
S. aureus ATCC 29213
  MIC: >128 µM
[3]
  MIC: >128 µM
[4]
  MIC: 16 µM
[5]
  MIC: 8 µM
E. coli ATCC 25922
  MIC: 4 µM
[6]
  GM (geometric mean of MIC values from all microbial strains): 78.67 µM
E. coli ATCC25922 [7]; ATCC25922, 1 h
  MIC after Papain: 4 µM
  MIC after Protease K: 16 µM
  MIC following heating at 100 °C: 8 µM
E. coli ATCC25922 [7]; ATCC25922, 18 h
  MIC in the presence of Ca2+: 8 µM
  MIC in the presence of Fe3+: 4 µM
  MIC in the presence of K+: 4 µM
  MIC in the presence of Mg2+: 4 µM
  MIC in the presence of NH4+: 2 µM
  MIC in the presence of Na+: 8 µM
  MIC in the presence of Zn2+: 4 µM
  MIC, Control (enzymatic stability): 4 µM
  MIC, Control (salt stability): 4 µM
  MIC, Control (thermal stability): 4 µM
E. coli ATCC25922 [7]; E. coli ATCC25922, peptide treated with 1 mg/mL pepsin, 1 h, 37 °C
  MIC after Pepsin: >128 µM
E. coli ATCC25922 [7]; E. coli ATCC25922, peptide treated with 1 mg/mL trypsin, 1 h, 37 °C
  MIC after Trypsin: >128 µM
E. coli ATCC25922 [8]; 1/2× MIC
  survival rates of the cells (no PI signal): 82.5%
E. coli ATCC25922 [8]; 1× MIC
  survival rates of the cells (no PI signal): 58.7%
S. aureus ATCC 25923
  MIC: 16 µM
E. coli UB 1005
  MIC: 16 µM
